In patent publication US10035796B2, “Crystalline forms of a BACE inhibitor, compositions, and their use” (Merck Sharp & Dohme Corp., priority 2014, dated 2018):

Assays:
[1] = Hygroscopicity by dynamic vapor sorption (DVS); format: physicochemical
Protocol: Hygroscopicity was evaluated by using a dynamic vapor sorption instrument (DVI). The experiment was performed under controlled temperature conditions with temperature set at 25° C. Following a drying step at 40° C. for 60 minutes, samples were subjected to water vapor starting from 5% relative humidity with stepwise increase up to 95% relative humidity in 5% increments. The desorption experiment was performed under the same conditions with a stepwise decrease in relative humidity. Maximum equilibrium time was held as 180 minutes with equilibrium criteria as 0.005 weight % in 5 min.

[2] = Single oral dose pharmacokinetic study in male rats; format: in vivo; settings: male rats (n=4 per group), suspension in 4% hydroxypropyl methylcellulose, nominal dose 100 mg/kg, FIG. 5
Protocol: (FIG. 5). […] To generate the data shown in FIG. 5, a single oral dose pharmacokinetic study was conducted as a two-way parallel design in male rats (n=4 per group). For each form a suspension was prepared in 4% hydroxypropyl methylcellulose with nominal dose as 100 mg/kg.

SMILES	crystalline form by PXRD after the vapor sorption analysis ([1]; after sorption/desorption between 5% and 95% relative humidity)	moisture uptake ([1]; ambient temperature, 95% relative humidity, DVS measurement) [weight %]	hygroscopicity according to the European Pharmacopeia classification ([1]; dynamic vapor sorption, 25° C.)	mean plasma concentration-time profile [2]
CN1C(=N)N[C@](C)(c2cc(NC(=O)c3ccc(F)cn3)ccc2F)CS1(=O)=O [Crystalline Anhydrous Form 1]	retain the identical Crystalline Anhydrous Form 1	0.04	non-hygroscopic	essentially identical to that of the corresponding amorphous HCl salt form
CN1C(N)=NC(C)(c2cc(NC(=O)c3ccc(F)cn3)ccc2F)CS1(=O)=O.Cl (centres unmarked) [amorphous HCl salt form]	–	–	–	excellent
